Experimental data taken from patent publication US20060014723A1, “Anti-parasitic uses of borinic acid complexes” (priority 2004, published 2006).
Values after ≈ are worked out from the molar mass of the structure shown.

Legend:
[1] = test system: T. b. rhodesiense STIB 900; assay: African sleeping sickness in vitro screening model (Alamar Blue); assay type: cell-based, Trypanosoma brucei rhodesiense
Summary of the method: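 Bloodstream-form trypomastigotes, 8×10^3/well, were grown in supplemented MEM with 15% horse serum, without hypoxanthine, at 37 °C in 5% CO2. They were exposed for 72 h to seven 3-fold dilutions from 90 to 0.123 μg/mL. Resazurin (Alamar Blue) was added for 2 h, fluorescence read at ex 536/em 588 nm, and IC50 taken as the mean of four values.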

P. Berghei = assay: In vivo efficacy mouse malaria model; settings: 2×/day
Protocol: Test compounds will be compared to chloroquine, artemisinin, mefloquine as follows: NMRI mice, SPF, females, […]
From a donor mouse with approximately 30% parasitemia, heparinized blood is taken and diluted in physiological saline to 10^8 parasitized erythrocytes per mL. An aliquot of 0.2 mL (=2×10^7 parasitized erythrocytes) of this suspension is injected intravenously (i.v.) into experimental groups of 4 mice.
Two-to-four hours post-infection, the experimental groups are treated with a single dose by the subcutaneous or the oral route. The compounds are prepared at an appropriate concentration, as a solution or suspension containing 3% ethanol and 7% Tween 80 or in SSV (standard suspending vehicle): […]
Twenty-four hours after the last treatment ([…]) blood smears from all animals are prepared and stained with Giemsa. Parasitemia is determined microscopically by counting 400 red blood cells (“rbcs”), for low parasitemias (<1%) up to 4,000 rbc's have to be counted. The difference between the mean value of the control group (taken as 100%) and those of the experimental groups is calculated and expressed as % Reduction where: [formula]
Additional smears will be taken on day 5 and day 6; and parasitemia will be determined and the activity calculated. Survival time (in days) is recorded, and the mean survival time is calculated. Adverse effects are recorded. Four mice/compound and a minimum of 12 mice/study (vehicle and positive controls run concurrently) are used.

[2] = test system: Trypanosoma cruzi Tulahuen C2C4 strain; assay: Chagas disease in vitro screening model (beta-galactosidase strain in L-6 cells); assay type: cell-based
Summary of the method: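 L-6 rat myoblasts in RPMI 1640/10% FBS at 37 °C were infected with 5×10^3 lacZ-expressing T. cruzi Tulahuen C2C4 trypomastigotes. CPRG/Nonidet substrate was read at 540 nm, and IC50 came from sigmoidal curves.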

| Structure (SMILES) | IC50 ([1]; Trypanosoma brucei) [µg/mL] | % of Activity (P. Berghei; 4 × 100 mg/kg, s.c.) [%] | Mean Survival (P. Berghei; 4 × 100 mg/kg, s.c.) [days] | Parasitized RBC over 100 % of Control (P. Berghei; 4 × 100 mg/kg, s.c.) [%] | Parasitized RBC over 100 Mean (P. Berghei; 4 × 100 mg/kg, s.c.) | % of Activity (P. Berghei; 4 × 300 mg/kg, p.o.) [%] | Mean Survival (P. Berghei; 4 × 300 mg/kg, p.o.) [days] | Parasitized RBC over 100 % of Control (P. Berghei; 4 × 300 mg/kg, p.o.) [%] | Parasitized RBC over 100 Mean (P. Berghei; 4 × 300 mg/kg, p.o.) | IC50 ([2]; Trypanosoma cruzi, TULAHUEN, L6, read-out: T. cruzi IC50) [µg/mL] | T. b. rhodesiense IC50 [1] [µg/mL] | % of Activity (P. Berghei; 4 × 30 mg/kg, s.c.) [%] | Mean Survival (P. Berghei; 4 × 30 mg/kg, s.c.) [days] | Parasitized RBC over 100 % of Control (P. Berghei; 4 × 30 mg/kg, s.c.) [%] | Parasitized RBC over 100 Mean (P. Berghei; 4 × 30 mg/kg, s.c.) | % of Activity (P. Berghei; 4 × 100 mg/kg, p.o.) [%] | Mean Survival (P. Berghei; 4 × 100 mg/kg, p.o.) [days] | Parasitized RBC over 100 % of Control (P. Berghei; 4 × 100 mg/kg, p.o.) [%] | Parasitized RBC over 100 Mean (P. Berghei; 4 × 100 mg/kg, p.o.) | T. cruzi IC50 [2] [µg/mL] |
| --- | --- | --- | --- | --- | --- | --- | --- | --- | --- | --- | --- | --- | --- | --- | --- | --- | --- | --- | --- | --- |
| COc1ccc(B(Oc2cccc3cccnc23)c2cccc(Cl)c2)cc1OC [Compound 27, (3-Chlorophenyl)(3,4-dimethoxyphenyl)borinic acid quinolin-8-yl ester] | 0.52 (≈ 1.29 µM) | 68.09 | 18.7 | 31.91 | 7.9 | 56.94 | 15.7 | 43.08 | 10.7 | 3.2 (≈ 7.93 µM) |  |  |  |  |  |  |  |  |  |  |
| CC1(C)COC(c2cccc(B(Oc3cccc4cccnc34)c3cccc(C4=NC(C)(C)CO4)c3)c2)=N1 [Compound 13, Bis[3-(4,5-dihydro-4,4-dimethyloxazol-2-yl)phenyl]borinic acid 8-hydroxyquinoline ester] |  |  |  |  |  |  |  |  |  |  | 0.5 | 52.31 | 15.3 | 47.09 | 11.9 | 81.29 | 12.7 | 18.78 | 4.7 | 8.7 |
